One data set relates to Asian tiger mosquito. The data set can be described thus: Evaluation of inhibition of seeking behavior of mosquito for human arm (landing count). In kind it is in vivo. Further details: tested at 0.1 vol %. The settings on record: sample 0.1 vol % in ethanol on breathable sheet on arm; landings in 5 minutes vs ethanol only; female mosquitoes. The method, then:
Mosquitoes were prepared for evaluation in the same manner as in Example 1. Approximately 150 to 200 female Asian tiger mosquitoes were transferred in a plastic cage (30×30×30 cm). […] The other three sides were covered with a net, preventing a smell from remaining in the box. A breathable sheet for disposable diapers (air permeance (JIS P8117): 2 sec/300 mL·32 sheets or higher, water vapor transmission rate (JIS Z0208): 1 g/100 cm^2·1 hr or higher) was cut into a size of 6 cm×6 cm, and the resultant was fixed with a tape to the inner side of a Qualatex glove (AS ONE 8-4053-02) cut in 5 cm×5 cm, and […] of an evaluation sample, the concentration of which had been adjusted to 0.1 vol % with ethanol, was uniformly applied onto the breathable sheet. After the application, the resultant was left to stand for approximately 5 minutes, and the attraction test was conducted. The arm was covered with the Qualatex glove provided with the breathable sheet, and inserted in the plastic cage. After the insertion, the number of mosquitoes which landed on the breathable sheet in 5 minutes was counted. In the case that a mosquito landed a plurality of times, all of the landings were counted. In view of the influence of a sample on the mosquitoes, the test was conducted just four times in one cage, and the cage was then replaced with another cage and other mosquitoes were used for the subsequent tests. The inhibitory rate relative to the number of landings with application of ethanol solvent only was calculated to determine the inhibitory effect. Inhibitory rate (%)=100×(1−[number of landings with application of sample]/[number of landings with application of ethanol]) (Equation 2)

In a further data set the test system is insects. The settings on record: repellent use; cited from earlier work.
For data set [1] the following is noted: cited from earlier work.

With `CCCCCCCCCCO` [1-Decanol, 1-decanol], the “Inhibitory rate (%)” value in the data set with Asian tiger mosquito amounted to 97.5%.

Turning to `C=CC(O)CCCCC` (centres unmarked) [1-Octen-3-ol, 1-octen-3-ol], the “Inhibitory rate (%)” value with Asian tiger mosquito stood at 70.5%.

For `CC1=CC(C)C(CO)C(C)C1` (centres unmarked) [2,4,6-Trimethyl-3-cyclohexene-1-methanol, 2,4,6-trimethyl-3-cyclohexene-1-methanol], the “Inhibitory rate (%)” value in the data set with Asian tiger mosquito amounted to 89%. `CCCc1ccc(O)c(OC)c1` [2-Methoxy-4-propylphenol, 2-methoxy-4-propylphenol]: the “Inhibitory rate (%)” value with Asian tiger mosquito came out at 100%. For `C=CCCCCCCCCO` [9-Decen-1-ol, 9-decen-1-ol], in the data set with Asian tiger mosquito, the “Inhibitory rate (%)” value worked out at 93.5%. Regarding `CCN(CC)C(=O)c1cccc(C)c1` [DEET, N,N-diethyl-3-methylbenzamide], the duration with insects was 2 to 3 h. In addition, the skin permeability entry in data set [1] was “high skin permeability”.

`CCOC(=O)C(C)C1CCCCC1` (centres unmarked) [Ethyl 2-cyclohexylpropionate, ethyl 2-cyclohexylpropionate]: the “Inhibitory rate (%)” value in the data set with Asian tiger mosquito is recorded as 58%.

As for `CCCCC(CC)C(=O)OCC` (centres unmarked) [Ethyl 2-ethylhexanoate, ethyl 2-ethylhexanoate], the “Inhibitory rate (%)” value in the data set with Asian tiger mosquito is on record as 66%. Turning to `CCOC(=O)Cc1ccccc1` [Ethyl phenylacetate, ethyl phenylacetate], the “Inhibitory rate (%)” value with Asian tiger mosquito is 38.5%. On to `CCC/C=C/COC(C)=O` [trans-2-Hexenyl acetate, trans-2-hexenyl acetate], for which, in the data set on Asian tiger mosquito, the “Inhibitory rate (%)” value is given as 54%.

Source of the values: patent US10980231B2, “Insect repellent” (Kao Corporation, priority 2015, dated 2021).
